Active and inactive are the calls of the source. The calls are words filed in the database; no cut-off is given here.
Columns and labels:
[1] = test system: MDA-MB-231; test: Induction of ROS production in human MDA-MB-231 cells measured after 2 hrs by fluorescence based assay; type: functional, cell-based
[2] = test system: MDA-MB-468; test: Induction of ROS production in human MDA-MB-468 cells measured after 2 hrs by fluorescence based assay; type: functional, cell-based
[3] = test system: MDA-MB-231; test: Antitumor activity against human MDA-MB-231 cells xenografted in NSG mouse assessed as reduction in tumor growth at 100 mg/kg, ip administered once daily for 22 days; type: functional, organism-based; conditions: time 22.0 day
[4] = test system: MDA-MB-468; test: Induction of DNA damage in human MDA-MB-468 cells assessed as increase in gamma-H2AX level measured after 72 hrs by Western blot analysis; type: functional, cell-based; conditions: dose 2.5-10 µM, DDE = dose-dependent effect
[5] = test system: MDA-MB-231; test: Induction of apoptosis in human MDA-MB-231 cells at 10 uM incubated for 72 hrs by Annexin-V/PI staining based flow cytometric analysis; type: functional, cell-based
[6] = test system: HCC1937; test: Antiproliferative activity against human HCC1937 cells assessed as reduction in cell survival incubated for 72 hrs by methylene blue cell survival assay; type: functional, cell-based
[7] = test system: MDA-MB-231; test: Induction of apoptosis in human MDA-MB-231 cells assessed as increase in cleaved PARP1 level incubated for 72 hrs by Western blot analysis; type: functional, cell-based; conditions: dose 2.5-10 µM, DDE = dose-dependent effect
[8] = test system: MDA-MB-231; test: Induction of apoptosis in human MDA-MB-231 cells assessed as increase in cleaved caspase 3 level incubated for 72 hrs by Western blot analysis; type: functional, cell-based; conditions: dose 2.5-10 µM, DDE = dose-dependent effect
[9] = test system: MDA-MB-231; test: Induction of DNA damage in human MDA-MB-231 cells assessed as increase in gamma-H2AX level measured after 72 hrs by Western blot analysis; type: functional, cell-based; conditions: dose 2.5-10 µM, DDE = dose-dependent effect
[10] = test system: MDA-MB-468; test: Induction of apoptosis in human MDA-MB-468 cells at 20 uM incubated for 72 hrs by Annexin-V/PI staining based flow cytometric analysis; type: functional, cell-based
[11] = test system: MDA-MB-231; test: Antiproliferative activity against human MDA-MB-231 cells assessed as reduction in cell survival incubated for 72 hrs by methylene blue cell survival assay; type: functional, cell-based
[12] = test system: MDA-MB-468; test: Induction of apoptosis in human MDA-MB-468 cells assessed as increase in cleaved PARP1 level incubated for 72 hrs by Western blot analysis; type: functional, cell-based; conditions: dose 2.5-10 µM, DDE = dose-dependent effect
[13] = test system: Mus musculus; test: In vivo inhibition of […] in NSG mouse xenografted with human MDA-MB-231 cells assessed as reduction of PARP1 level in tumor at 100 mg/kg, ip administered once daily for 22 days by Western blot analysis; type: functional, organism-based; conditions: time 22.0 day
[14] = test system: MDA-MB-231; test: Induction of DNA damage in human MDA-MB-231 cells nucleus assessed as increase in gamma-H2AX punctate staining at 10 uM by DAPI staining based confocal microscopic imaging analysis; type: functional, cell-based
[15] = Toxicity in NSG mouse xenografted with human MDA-MB-231 cells assessed as effect on body weight at 100 mg/kg, ip administered once daily for 22 days; type: organism-based; conditions: in vivo, 528 h, time 22 day
[16] = test system: MDA-MB-468; test: Inhibition of DNA repair activity in human MDA-MB-468 cells assessed as inhibition of NHEJ activity measured every 12 hrs for 72 hrs by luciferase based host cell reactivation assay; type: functional
[17] = test system: Mus musculus; test: In vivo inhibition of […] in NSG mouse xenografted with human MDA-MB-231 cells assessed as reduction of FASN level in tumor at 100 mg/kg, ip administered once daily for 22 days by immunohistochemical analysis; type: functional, organism-based; conditions: time 22.0 day
[18] = test system: MDA-MB-231; test: Induction of DNA damage in human MDA-MB-231 cells assessed as inhibition of PARP-1 expression incubated for 72 hrs by Western blot analysis; type: functional, cell-based; conditions: dose 2.5-10 µM, DDE = dose-dependent effect
[19] = test system: MDA-MB-468; test: Antiproliferative activity against human MDA-MB-468 cells assessed as reduction in cell survival incubated for 72 hrs by methylene blue cell survival assay; type: functional, cell-based
[20] = test system: Mus musculus; test: In vivo inhibition of […] in NSG mouse xenografted with human MDA-MB-231 cells assessed as reduction of PARP1 level in tumor at 100 mg/kg, ip administered once daily for 22 days by immunohistochemical analysis; type: functional, organism-based; conditions: time 22.0 day
[21] = test system: MDA-MB-436; test: Antiproliferative activity against human MDA-MB-436 cells assessed as reduction in cell survival incubated for 72 hrs by methylene blue cell survival assay; type: functional, cell-based
[22] = test system: MDA-MB-231; test: Antitumor activity against human MDA-MB-231 cells xenografted in NSG mouse assessed as reduction in tumor wet weight at 100 mg/kg, ip administered once daily for 22 days; type: functional, organism-based; conditions: time 22.0 day
[23] = test system: MDA-MB-468; test: Induction of DNA damage in human MDA-MB-468 cells assessed as inhibition of PARP-1 expression incubated for 72 hrs by Western blot analysis; type: functional, cell-based; conditions: dose 2.5-10 µM, DDE = dose-dependent effect
[24] = test system: MDA-MB-468; test: Induction of DNA damage in human MDA-MB-468 cells assessed as decrease in PARP-1 mRNA level at 2.5 to 10 uM incubated for 72 hrs by RT-PCR analysis; type: functional, cell-based; conditions: dose 2.5-10 µM
[25] = test system: Mus musculus; test: In vivo inhibition of […] in NSG mouse xenografted with human MDA-MB-231 cells assessed as increase in gamma-H2AX level in tumor at 100 mg/kg, ip administered once daily for 22 days by immunohistochemical analysis; type: functional, organism-based; conditions: time 22.0 day
[26] = test system: MDA-MB-468; test: Induction of DNA damage in human MDA-MB-468 cells nucleus assessed as increase in gamma-H2AX punctate staining at 20 uM by DAPI staining based confocal microscopic imaging analysis; type: functional, cell-based
[27] = test system: MDA-MB-231; test: Induction of DNA damage in human MDA-MB-231 cells assessed as decrease in PARP-1 mRNA level at 2.5 to 10 uM incubated for 72 hrs by RT-PCR analysis; type: functional, cell-based; conditions: dose 2.5-10 µM
[28] = test system: Mus musculus; test: In vivo inhibition of […] in NSG mouse xenografted with human MDA-MB-231 cells assessed as reduction of FASN level in tumor at 100 mg/kg, ip administered once daily for 22 days by Western blot analysis; type: functional, organism-based; conditions: time 22.0 day
[29] = molecular target: T1, Fatty acid synthase (Homo sapiens, UniProt P49327); test: Inhibition of FASN in human MDA-MB-231 cells overexpressing FASN assessed as decrease in endogenous FFA level at IC50 concentration incubated for 72 hrs; type: cell-based
Target sequence in this assay (P49327 whole entry, looked up): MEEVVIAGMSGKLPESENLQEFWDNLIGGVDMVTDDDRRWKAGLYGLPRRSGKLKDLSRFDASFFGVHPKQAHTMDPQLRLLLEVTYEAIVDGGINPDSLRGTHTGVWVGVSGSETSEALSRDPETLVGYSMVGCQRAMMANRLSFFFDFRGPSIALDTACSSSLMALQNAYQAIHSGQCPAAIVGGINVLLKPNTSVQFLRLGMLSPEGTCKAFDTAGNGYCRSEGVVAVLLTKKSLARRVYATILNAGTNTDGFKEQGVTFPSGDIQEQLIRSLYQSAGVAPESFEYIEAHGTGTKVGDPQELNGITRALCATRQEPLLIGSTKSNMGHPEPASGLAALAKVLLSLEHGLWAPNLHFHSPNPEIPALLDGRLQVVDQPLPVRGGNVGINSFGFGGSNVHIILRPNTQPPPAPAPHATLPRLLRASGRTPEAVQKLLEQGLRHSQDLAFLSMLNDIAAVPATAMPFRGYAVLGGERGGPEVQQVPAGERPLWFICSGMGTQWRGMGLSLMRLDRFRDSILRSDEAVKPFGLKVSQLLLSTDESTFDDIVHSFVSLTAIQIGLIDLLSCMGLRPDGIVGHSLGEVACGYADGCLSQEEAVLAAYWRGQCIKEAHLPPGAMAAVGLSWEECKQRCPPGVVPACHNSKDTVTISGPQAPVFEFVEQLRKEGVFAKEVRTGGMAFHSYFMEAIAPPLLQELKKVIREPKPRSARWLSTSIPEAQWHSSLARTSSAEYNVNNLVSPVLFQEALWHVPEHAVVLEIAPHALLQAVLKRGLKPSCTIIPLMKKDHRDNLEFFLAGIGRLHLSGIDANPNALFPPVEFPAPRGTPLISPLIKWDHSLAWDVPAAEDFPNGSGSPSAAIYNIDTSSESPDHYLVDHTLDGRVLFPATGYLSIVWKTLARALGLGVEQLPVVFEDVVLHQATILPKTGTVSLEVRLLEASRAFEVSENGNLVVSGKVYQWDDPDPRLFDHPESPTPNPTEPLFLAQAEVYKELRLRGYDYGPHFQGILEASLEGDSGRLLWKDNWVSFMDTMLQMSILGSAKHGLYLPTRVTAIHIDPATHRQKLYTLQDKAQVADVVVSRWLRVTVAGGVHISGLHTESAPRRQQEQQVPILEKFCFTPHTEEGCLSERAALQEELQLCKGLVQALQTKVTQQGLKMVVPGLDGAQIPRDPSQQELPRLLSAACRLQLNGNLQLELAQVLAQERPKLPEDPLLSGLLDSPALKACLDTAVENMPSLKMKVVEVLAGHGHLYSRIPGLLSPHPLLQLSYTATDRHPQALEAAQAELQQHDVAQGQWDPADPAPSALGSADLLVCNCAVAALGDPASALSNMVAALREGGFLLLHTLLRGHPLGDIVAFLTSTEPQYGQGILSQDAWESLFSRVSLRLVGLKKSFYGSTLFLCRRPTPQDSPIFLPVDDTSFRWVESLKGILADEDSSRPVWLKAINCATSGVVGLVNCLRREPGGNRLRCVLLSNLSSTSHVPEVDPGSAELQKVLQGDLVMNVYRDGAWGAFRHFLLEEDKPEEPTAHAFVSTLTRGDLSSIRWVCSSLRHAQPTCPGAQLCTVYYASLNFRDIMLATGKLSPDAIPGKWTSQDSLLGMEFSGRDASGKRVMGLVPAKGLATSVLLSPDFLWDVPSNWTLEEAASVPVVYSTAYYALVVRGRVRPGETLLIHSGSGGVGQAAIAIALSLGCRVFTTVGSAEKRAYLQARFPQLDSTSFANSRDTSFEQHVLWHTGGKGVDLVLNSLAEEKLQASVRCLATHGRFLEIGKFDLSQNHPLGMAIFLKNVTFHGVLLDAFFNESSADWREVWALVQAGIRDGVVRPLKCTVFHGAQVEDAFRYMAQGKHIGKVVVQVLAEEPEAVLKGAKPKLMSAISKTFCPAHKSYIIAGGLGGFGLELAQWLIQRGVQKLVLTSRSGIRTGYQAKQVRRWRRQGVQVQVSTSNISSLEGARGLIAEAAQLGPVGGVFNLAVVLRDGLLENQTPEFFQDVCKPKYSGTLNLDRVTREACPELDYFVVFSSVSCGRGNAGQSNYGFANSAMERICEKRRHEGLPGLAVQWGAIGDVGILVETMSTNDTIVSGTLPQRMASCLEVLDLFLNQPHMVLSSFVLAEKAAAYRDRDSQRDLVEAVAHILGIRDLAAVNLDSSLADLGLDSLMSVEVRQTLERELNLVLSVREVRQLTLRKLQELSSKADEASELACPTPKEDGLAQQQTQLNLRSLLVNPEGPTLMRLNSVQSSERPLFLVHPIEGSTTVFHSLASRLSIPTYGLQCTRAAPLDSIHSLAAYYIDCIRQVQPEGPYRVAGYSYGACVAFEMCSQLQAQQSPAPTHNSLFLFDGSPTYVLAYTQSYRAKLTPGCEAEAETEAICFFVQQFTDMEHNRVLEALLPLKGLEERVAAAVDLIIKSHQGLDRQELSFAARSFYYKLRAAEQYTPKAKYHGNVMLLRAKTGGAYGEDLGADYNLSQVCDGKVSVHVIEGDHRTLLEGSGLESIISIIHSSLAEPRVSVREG

[30] = Induction of DNA damage in human KTB39 cells assessed as increase in gamma-H2AX level at IC50 concentration by Western blot analysis; type: toxicity, cell-based
[31] = Induction of DNA damage in human KTB34 cells assessed as increase in gamma-H2AX level at IC50 concentration by Western blot analysis; type: toxicity, cell-based
[32] = test system: MDA-MB-231; test: Inhibition of DNA repair activity in human MDA-MB-231 cells assessed as inhibition of NHEJ activity measured every 12 hrs for 72 hrs by luciferase based host cell reactivation assay; type: functional
[33] = test system: Mus musculus; test: In vivo inhibition of […] in NSG mouse xenografted with human MDA-MB-231 cells assessed as increase in gamma-H2AX level in tumor at 100 mg/kg, ip administered once daily for 22 days by Western blot analysis; type: functional, organism-based; conditions: time 22.0 day
[34] = Induction of DNA damage in human KTB22 cells assessed as increase in gamma-H2AX level at IC50 concentration by Western blot analysis; type: toxicity, cell-based
[35] = test system: MDA-MB-468; test: Induction of apoptosis in human MDA-MB-468 cells assessed as increase in cleaved caspase 3 level incubated for 72 hrs by Western blot analysis; type: functional, cell-based; conditions: dose 2.5-10 µM, DDE = dose-dependent effect
[36] = test system: MDA-MB-231; test: Effect on cell cycle distribution in human MDA-MB-231 cells assessed as accumulation of cells in sub-G1 phase at 10 uM incubated for 72 hrs by PI staining based flow cytometric analysis; type: functional
[37] = molecular target: T1, Fatty acid synthase; test: Inhibition of human FASN enoyl reductase activity using crotonyl CoA as substrate assessed as inhibition of substrate […] measured every 1 min for 10 mins in the presence of NADPH by fluorescence based assay
Target sequence in this assay (P49327 whole entry): as the sequence (P49327 whole entry, looked up) above

| SMILES | Activity [4] | Activity [9] | Activity [14] | inhibition [16] | Activity [18] | Activity [23] | Activity [24] | Activity [26] | Activity [27] | inhibition [29] | Activity [30] | Activity [31] | inhibition [32] | Activity [34] | further results |
| --- | --- | --- | --- | --- | --- | --- | --- | --- | --- | --- | --- | --- | --- | --- | --- |
| CC1=CC(=O)c2ccccc2C1=O | – | – | – | – | – | – | – | – | – | – | – | – | – | – | Activity [1]: Active; Activity [2]: Active |
| Cc1c(OCC(F)(F)F)ccnc1CSc1nc2ccc(O)cc2[nH]1 | Dde | Dde | Active | Active | Dde | Dde | Active | Active | Active | Active | Toxic | Toxic | Active | Toxic | Activity [3]: Active; Activity [5]: Active; Activity [6]: Active; Activity [7]: Dde; Activity [8]: Dde; Activity [10]: Active; Activity [11]: Active; Activity [12]: Dde; inhibition [13]: Active; Activity [15]: Non-Toxic; inhibition [17]: Active; Activity [19]: Active; inhibition [20]: Active; Activity [21]: Active; Activity [22]: Active; inhibition [25]: Active; inhibition [28]: Active; inhibition [33]: Active; Activity [35]: Dde; Activity [36]: Active |
| Cc1c(OCC(F)(F)F)ccnc1C[S+]([O-])c1nc2ccccc2[nH]1 (stereo unspecified) [LANSOPRAZOLE] | Dde | Dde | Active | Active | Dde | Dde | Active | Active | Active | Active | Toxic | Toxic | Active | Toxic | Ki [37]: 1.7 µM |

Source: ChEMBL document CHEMBL5108079, “Therapeutic Activity of the Lansoprazole Metabolite 5-Hydroxy Lansoprazole Sulfide in Triple-Negative Breast Cancer by Inhibiting the Enoyl Reductase of Fatty Acid Synthase” (J Med Chem, 2022)
